Measured values reported in publication PMC6325219, “Preclinical Characterization of NVR 3-778, a First-in-Class Capsid Assembly Modulator against Hepatitis B Virus” (Antimicrobial Agents and Chemotherapy, 2018).
Like-named read-outs stand apart in the source and are kept apart here. Marks after values point to notes of the source that are not given here.

Columns and labels:
[1] = tested on: HBV core protein variant I105L; experiment: Transient-transfection antiviral study in HepG2 cells, core variant I105L; type: cell-based, hepatitis B virus; details: for EC50 FC, I105L: ratio of mean EC50 for core variant over wild-type HBV
Experimental: (§4) Cells were cotransfected with the HBV plasmids (100 ng/well) and a Gaussia expression plasmid (10 ng/well) (Thermo Scientific) using the Lipofectamine LTX Plus transfection reagent (Life Technologies). Transfection mixtures were removed after overnight incubation, and cells were treated with serially diluted NVR 3-778 at a final dimethyl sulfoxide (DMSO) concentration of 0.5%. After 3 days of incubation with the compound, the supernatants were collected and secreted Gaussia luciferase was measured using a Gaussia Flash luciferase assay kit (Thermo Scientific). […] Samples were diluted into lysis buffer (Affymetrix) containing 2.5 µg proteinase K (Affymetrix) at 50°C for 40 min. Intracellular encapsidated HBV DNA was denatured for 30 min at 25°C in 0.2 M NaOH (Sigma) and incubated with HBV DNA probes designed to hybridize to the minus-strand HBV DNA (Affymetrix). The denatured DNA was subsequently detected using a QuantiGene assay kit, according to the branched DNA (bDNA) assay recommended by the manufacturer (Affymetrix).

HBV GT B (wild-type HBV) = experiment: Transient-transfection antiviral study in HepG2 cells, GT B (wild-type HBV); type: cell-based, hepatitis B virus; details: for EC50: Hepatitis B virus; for EC50 FC, wild type: reference, ratio to wild-type HBV
Experimental: as §4

[2] = tested on: HBV rtL180M/M204V/N236T variant; experiment: microbe, parasite or virus in culture; type: cell-based, hepatitis B virus
Description: (§1) Plasmids containing HBV DNA with rtN236T, rtA181V, rtA181V/N236T, and rtL180M/M204V/N236T were generated using the GT B WT or rtL180M/M204V DNA-containing plasmids and site-directed mutagenesis (Agilent Technologies). A panel of nine different HBV core variants (cW102G, cW102R, cI105V, cI105L, cI105T, cT109S, cT109M, cT109I, and cY118F) was generated, also using the GT B WT DNA-containing plasmid and site-directed mutagenesis. The full-length genome from all plasmids was sequenced to confirm that only the intended nucleotide change(s) was present. Finally, HBV sequences from genotypes A (GenBank accession number AF305422), C (GenBank accession number AB033550), D (GenBank accession number V01460), E (GenBank accession number AB274971), F (GenBank accession number AB036912), G (GenBank accession number AF160501), and H (GenBank accession number AB375159) were gene synthesized as 1.1 times the genome length together with part of the CMV promoter at the 5′ end. The gene-synthesized piece was validated by sequencing and subcloned into the pCMV-HBV plasmid using the restriction sites SalI and NdeI (Genewiz, USA).
(§2) HepG2 cells were seeded in 96-well plates at a density of 20,000 cells/well and allowed to attach overnight at 37°C in 5% CO2. Cells were cotransfected with the HBV plasmids (100 ng/well) and a Gaussia expression plasmid (10 ng/well) (Thermo Scientific) using the Lipofectamine LTX Plus transfection reagent (Life Technologies). Transfection mixtures were removed after overnight incubation, and cells were treated with serially diluted NVR 3-778 at a final dimethyl sulfoxide (DMSO) concentration of 0.5%. After 3 days of incubation with the compound, the supernatants were collected and secreted Gaussia luciferase was measured using a Gaussia Flash luciferase assay kit (Thermo Scientific). Cells were lysed with 0.33% NP-40 (Thermo Scientific), and the cytoplasmic fractions were treated with 2 units of Turbo DNase (Invitrogen) and 10 units of S7 nuclease (Roche) in CutSmart buffer (New England Biolabs) containing 25 µM CaCl2 (G-Biosciences) at 37°C for 60 min, followed by inactivation of the enzymes at 75°C for 15 min. Samples were diluted into lysis buffer (Affymetrix) containing 2.5 µg proteinase K (Affymetrix) at 50°C for 40 min. Intracellular encapsidated HBV DNA was denatured for 30 min at 25°C in 0.2 M NaOH (Sigma) and incubated with HBV DNA probes designed to hybridize to the minus-strand HBV DNA (Affymetrix). The denatured DNA was subsequently detected using a QuantiGene assay kit, according to the branched DNA (bDNA) assay recommended by the manufacturer (Affymetrix).
(§3) To determine percent inhibition, the mean background signal from wells containing only culture medium was subtracted from the signal for all other samples, and percent inhibition at each compound concentration was calculated by normalization to the signals for HepG2.2.15 cells treated with 0.5% DMSO. […] Both CalcuSyn and MacSynergy II (Ann Arbor, MI) software were used to evaluate the effect of compound combinations ([27]). After data analysis at the 95% confidence level, values of synergy or antagonism of <25 µM^2% were defined as insignificant, those between 25 and 50 µM^2% were defined as minor, those between 50 and 100 µM^2% were defined as moderate, and those of >100 µM^2% were defined as strong.

[3] = tested on: HBV rtL180M/M204V variant; experiment: microbe, parasite or virus in culture; type: cell-based, hepatitis B virus
Description: as §1, §2, §3

HBV = experiment: Combination study of NVR 3-778 with nucleos(t)ide analogs in HepG2.2.15 cells (MacSynergy II, CalcuSyn); type: cell-based, hepatitis B virus (GT D)
Experimental: The effect of the compound combinations on cell viability was evaluated by measuring the intracellular ATP levels of HepG2.2.15 cells.
HepG2.2.15 cells were seeded in 96-well plates at a density of 40,000 cells/well and incubated with serially diluted compounds at a final DMSO concentration of 0.5%. In combination studies, cells were treated with compounds either alone or in combination after combining the compounds in a checkerboard format. In studies examining the effect of human serum, serially diluted NVR 3-778 was added into cell culture medium containing 0% to 40% human serum (BioreclamationIVT). Cells were incubated with the compounds for 3 days, after which the medium was removed, fresh medium containing the compounds was added to the cells, and the cells were incubated for another 3 days prior to harvesting of the supernatants or cells for antiviral assays. To quantify intracellular encapsidated rcDNA or encapsidated pgRNA, cells were first solubilized using lysis buffer containing 1% NP-40 and 10 mM CaCl2. The cytoplasmic fraction was then treated with S7 nuclease (6 units) to remove nonencapsidated nucleic acids, after which the S7 nuclease was inactivated by the addition of EDTA (0.5 M). To quantify extracellular HBV DNA or HBV RNA, supernatants from HepG2.2.15 cells were treated with Turbo DNase at 37°C for 60 min, followed by inactivation of DNase at 75°C for 15 min. The levels of HBV DNA were determined by a bDNA assay as described above (Affymetrix). Supernatants or cell lysates containing HBV RNA were treated with proteinase K (2.5 µg) at 50°C for 40 min, transferred to a capture plate containing HBV RNA probe sets, and hybridized overnight at 55°C. Captured HBV RNA was measured by the addition of a chemiluminescent substrate using a QuantiGene assay (Affymetrix). To determine the cytotoxicity effect of the compounds on proliferating cells, HepG2.2.15 cells were seeded in 96-well plates at a density of 10,000 cells/well and incubated with serially diluted compounds at a final DMSO concentration of 0.5% for 3 days, after which the medium was removed, fresh medium containing the compounds was added to the cells, and the cells were incubated for another 3 days. At day 6, the CellTiter-Glo reagent was added to the cells and viability was determined according to the manufacturer’s protocol (Promega). Luminescence signals were measured at 0.2 s using a Victor X4 multimode plate reader (PerkinElmer).
as §3

[4] = in combination with NVR 3-778, HepG2.2.15 cells, 6 days, MacSynergy II, 95% confidence
[5] = ratio of mean EC50 against variant over WT HBV, HepG2 cells
[6] = HepG2.2.15 cells, 6 days, LMV 0.15-1.5 μM

Row | Structure (SMILES) | EC50 FC, I105L [1] [fold] | EC50 (HBV GT B (wild-type HBV); HepG2, read-out: WT EC50) [nM] | EC50 FC, wild type (HBV GT B (wild-type HBV)) [fold] | EC50 ([2]; Hepatitis B virus, HepG2, read-out: EC50, rtL180M/M204V/N236T variant) [nM] | EC50 ([3]; Hepatitis B virus, HepG2, read-out: EC50 (mean), rtL180M/M204V variant) [nM] | Antagonism (HBV; [4]) [μM^2%] | Synergy (HBV; [4]) [μM^2%] | CalcuSyn-predicted effect (HBV; in combination with NVR 3-778, based on overall CI) | EC50 ([1]; Hepatitis B virus, HepG2, read-out: EC50, core variant I105L) [nM] | EC50 (HBV GT B (wild-type HBV); HepG2, 72 h, read-out: EC50 (mean), HBV GT B) [nM] | EC50 (HBV GT B (wild-type HBV); HepG2, read-out: EC50, wild type HBV) [nM] | EC50 fold change, rtL180M/M204V/N236T [2, 5] | EC50 fold change, rtL180M/M204V [3, 5] | Effect of adding 0.4 μM NVR 3-778 to LMV on secreted HBV RNA (HBV; [6]) | Effect of adding 2 μM and 4 μM NVR 3-778 to LMV on secreted HBV RNA (HBV; [6])
1 | Nc1ccn([C@@H]2CS[C@H](CO)O2)c(=O)n1 [LMV, lamivudine, reference compound] | 1.3 | 530 ± 120 | 1 | > 100000 | > 100000 | −14.3 | 5.1 | Additive | – | – | – | – | – | – | –
2 | O=C(Nc1cc(F)c(F)c(F)c1)c1ccc(F)c(S(=O)(=O)N2CCC(O)CC2)c1 [NVR 3-778] | 1.5 | 310 ± 100 | 1 | – | – | – | – | – | 340 ± 130 | 200 | 230 ± 110 | 1.4 ± 0.5^d fold | 1.3 ± 0.6^d fold | partially reversed the increase in the level of secreted HBV RNA induced by LMV | completely reverted the LMV effect
